Results published in patent publication US20240366553A1, “ASPARTIC ACID COPPER COMPLEX, AND USE THEREOF” (GUANGZHOU INSIGHTER BIOTECHNOLOGY CO., LTD., priority 2021, published 2024).
Like-named read-outs stand apart in the source and are kept apart here.

Tests used:
[1] = system: Lingnan yellow-feathered, fast-growing, and large-sized broilers; conditions: for Average feed consumption / Average weight gain / Feed-to-meat ratio / Survival rate (%) / Relative weight gain rate (%): broilers aged 1 to 21 days; for Relative weight gain rate (%): relative to control group; for Physical characteristics of the experimental chickens: experimental groups of compounds 1-7; for Feed conversion decreased by / Relative weight gain rate increased by: versus control
From the text: (§1) Experimental animals: 900 one-day-old Lingnan yellow-feathered, fast-growing, and large-sized broilers; 150 weaned piglets;
(§2) Feeds: basal feed for chickens and basal feed for pigs that contain no antimicrobial drugs, copper sources and growth promoters;
(§3) Experimental samples: compound 1, compound 2, compound 3, compound 4, compound 5, compound 6, compound 7,
900 one-day-old Lingnan yellow-feathered, fast-growing, and large-sized broilers were randomly divided into 18 groups (50 broilers/group). […] The broilers had free access to food. The weight gain and feed conversion of the experimental chickens (aged from 1 to 21 days) in each experimental group were recorded.

[2] = system: weaned piglets; conditions: for Average weight gain / Feed-to-meat ratio / Survival rate (%) / Total feed consumption / Total weight gain / Relative weight gain rate (%): weaned piglets, 30 days; for Total feed consumption / Total weight gain: 10 pigs; for Relative weight gain rate (%): control group = 100; for Improvement in the feed conversion of the experimental pigs compared with compound 4: used at the same doses (50 mg/kg)
From the text: as §1, §2, §3
150 weaned piglets were grouped according to Table 2 (10 piglets/group). […] The piglets had free access to food. The weight gain and feed conversion of the experimental pigs in each experimental group were recorded within 30 days after […] weaning.

[3] = system: black carp (subyearlings); experiment: Use of aspartic acid copper complex in aquaculture feeds (black carp breeding experiment); assay type: in vivo; conditions: 30 mg/kg in feed (as copper ions), 8 weeks
Method: Experimental fishes: The experimental fishes used were black carp (subyearlings), which were provided by the Dafeng fish nursery (Huizhou city, Guangdong province). Healthy and active fingerling black carps (uniform in size) were fed for 4 weeks in a big net cage (4×2×1.5 m^3) and then the formal breeding experiment was carried out. The experimental systems were small floating net cages (1.1×1.1×1.1 m^3 in size). Each small net cage was provided with an air-filling head, which allowed for continuous inflation of the cages for 24 h a day. The small net cages and the acclimatization net cage were all placed in a 3500 m^2 pond in the experimental field. […] During the trial, 480 black carps (fasted for 1 d) were randomly divided into 10 groups, with 4 replicates for each group and 12 fishes in each replicate. After weighing as a whole, the black carps were randomly placed into […] and fed with different experimental feeds.
Experimental feeds: The experimental feeds were formulated following the formula in Table 5. According to Table 6, different copper element supplements (calculated based on the copper ions) were added to the feeds in different experimental groups, respectively. The feed raw materials were subjected to ultrafine grinding and then granulated into floating expanded feeds (3 mm) using an expansion machine from Jiangsu Muyang Corporation. The demolding temperature was 130° C. 3% soybean oil was externally sprayed using an oil spraying device. The finished product was sealed and stored in a cool place for later use.
Experimental management: During the trial, the carps were manually fed in a restricted dose. The feeding dose was adjusted once a week, and the doses for all groups (based on the initial body weight) were completely consistent. The carps were fed twice a day (at 7:30 and 15:00). The experiment lasted for 8 weeks. During the trial, the water quality was regularly monitored, and throughout the breeding, the water temperature was kept at 26.88±3.08° C., DO>5.0 mg O L^−1, pH 7.8, ammonia nitrogen<0.50 mg NL^−1, and nitrite-nitrogen<0.05 mg N L^−1.
Parametric statistics: During the trial, the carps in each net cage were weighed as a whole one day after discontinuation of feeding, and the average weight gain (g) and feed-to-meat ratio were calculated. The calculation formulas are as follows:
Average weight gain (g)=Average final weight−Average initial weight; Feed-to-meat ratio=Food intake/Weight gain of fishes;

[4] = 50 mg/kg in feed (as copper ion)
[5] = L-aspartic acid 105 mg/kg in feed, no copper source
[6] = L-aspartic acid group (105 mg/kg)
[7] = L-aspartic acid 104 mg/kg in feed, no copper source

SMILES | Average feed consumption [1, 4] [g] | Average weight gain [1, 4] [g] | Feed-to-meat ratio [1, 4] | Survival rate (%) [1, 4] [%] | Relative weight gain rate (%) [1, 4] [%] | Physical characteristics of the experimental chickens [1] | Average weight gain [2, 4] [kg] | Feed-to-meat ratio [2, 4] | Survival rate (%) [2, 4] [%] | Total feed consumption [2, 4] [kg] | Total weight gain [2, 4] [kg] | Relative weight gain rate (%) [2, 4] [%] | Average weight gain [3] [g] | Feed-to-meat ratio [3] | Improvement in the feed conversion of the experimental pigs compared with compound 4 [2] | further results
NC(CC(=O)[O-])C(=O)[O-].O.O.[Cu+2] (racemic) [Compound 5, [(Cu(II))(DL-Asp)(H2O)2]] | 917 | 503 | 1.824 | 100 | 106.1 | normal physical characteristics | 11.83 | 2.184 | 100 | 258.35 | 118.3 | 108.5 | 349 | 1.433 |  | 
N[C@@H](CC(=O)[O-])C(=O)[O-].O.O.[Cu+2] [Compound 2, [(Cu(II))(L-Asp)(H2O)2]. (H2O)0.34] | 908 | 509 | 1.783 | 100 | 107.4 | normal physical characteristics | 12.30 | 2.116 | 100 | 260.21 | 123.0 | 112.8 | 368 | 1.359 | about 2 fold | 
N[C@@H](CC(=O)[O-])C(=O)[O-].[Cu+2] [Compound 4, [(Cu(II))(L-Asp)]] | 924 | 508 | 1.819 | 100 | 107.2 | normal physical characteristics | 11.67 | 2.208 | 100 | 257.63 | 116.7 | 107.06 | 344 | 1.453 |  | Feed conversion decreased by ([1]; 50 mg/kg (as copper ion)): 3.23%; Relative weight gain rate increased by ([1]; 50 mg/kg (as copper ion)): 7.2%
N[C@@H](CC(=O)[O-])C(=O)[O-].O.O.[Cu+2] [Compound 3, [(Cu(II))(L-Asp)(H2O)2]·(H2O)0.62] | 919 | 514 | 1.788 | 100 | 108.4 | normal physical characteristics | 11.92 | 2.114 | 100 | 251.97 | 119.2 | 109.4 | 361 | 1.385 | about 2 fold | 
NC(CC(=O)[CH2][Cu][O]C(=O)CC(N)C(=O)O)C(=O)O (stereo not shown) [Compound 8, reference compound] |  |  |  | 100 |  |  |  |  | 100 |  |  |  |  |  |  | Production performance of the experimental pigs ([2]; 50 mg/kg, versus control group): substantially close to that achieved in the control group
N[C@@H](CC(=O)O)C(=O)O [L-aspartic acid, reference compound] |  |  |  |  |  |  |  |  |  |  |  |  |  |  |  | Average feed consumption [1, 5]: 899 g; Average weight gain [1, 5]: 480 g; Feed-to-meat ratio [1, 5]: 1.873; Survival rate (%) [1, 5]: 100%; Relative weight gain rate (%) [1, 5]: 101.3%; Feed conversion decreased by [1, 6]: 0.32%; Relative weight gain rate increased by [1, 6]: 4.2%; Average weight gain [2, 7]: 11.04 kg; Feed-to-meat ratio [2, 7]: 2.285; Survival rate (%) [2, 7]: 100%; Total feed consumption [2, 7]: 252.27 kg; Total weight gain [2, 7]: 110.4 kg; Relative weight gain rate (%) [2, 7]: 101.28%
